Assay results taken from patent publication US9073892B2, “Indazolyl triazol derivatives” (Merck Serono S.A., priority 2010, dated 2015).
Structures can show the parent of a compound that is named as a salt.

Key:
[1] = system: IL1β-induced IL8 release in THP1 cells; experiment: IRAK IL8 secretion functional assay; format: cell-based; settings: Homo sapiens; THP-1 cells, IL1β 100 ng/ml overnight, IL8 by HTRF; read-out: IC50, Secretion THP-1/IL-β induced IL8 release
Summary of the method: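 THP-1 cells (30,000/well, RPMI 1640) were incubated overnight at 37 °C, 5% CO2 with compound (20 μM to 1 nM) plus IL1β at 100 ng/ml final. IL-8 in the supernatant was measured by HTRF with europium cryptate- and XL665-labelled anti-IL8 antibodies, read after 3 h at 30 °C.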

[2] = system: IL-6 secretion in human PBMC; experiment: IRAK IL-6 secretion functional assay in human PBMC; format: cell-based; settings: preincubated 1 h with test article, stimulated with 10 ng/ml IL1, 18-20 h, ELISA
Description: IRAK IL-6 Secretion Functional Assay in Human PBMC
Human PBMCs from healthy volunteers were purified from buffy coats of heparinized whole blood by density centrifugation on Ficoll-Hypaque. Isolated PBMCs were washed twice in PBS, counted, and seeded at a density of 7×10^4 cells/well in 180 µl of complete RPMI 1640 medium containing 10% heat-inactivated FBS. PBMC were preincubated for 1 h with serial dilutions of test article dissolved in DMSO (final DMSO concentration 0.33%) at 37° C. in a 5% CO2 incubator. PBMC were then stimulated with 10 ng/ml of IL1-(final volume […]) and incubation was continued for 18-20 h. The supernatants were collected and IL-6 was quantified using the Duo-set ELISA kit (R&D Systems) following manufacturer's instructions

IRAK1/4 human = system: T1, IRAK1/4 human; experiment: IRAK1/4 phosphorylation IC50 (enzymatic assay, table 2); format: biochemical; settings: human IRAK1/4 phosphorylation
T1 construct: fused on or other part: His tag and TEV cleavage site at the N-terminus
Summary of the method: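 His-TEV-tagged human IRAK-1 or IRAK-4 (IRAK-4 with STK1-biotin peptide) was incubated in 384-well plates with ATP and compounds in DMSO from 20 µM to 1 nM, with 2% DMSO controls. The buffer was Hepes pH7.0 50 mM with MgCl2, DTT, EGTA and BSA, and reactions ran 2 or 3 hours. Inhibition was reported as IC50.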

| Compound | IC50 [1] [nM] | IC50 (IRAK1/4 human) [nM] | IC50 [2] [nM] |
| --- | --- | --- | --- |
| O=C(c1ccc(-n2cc(-c3n[nH]c4ccccc34)nn2)cc1)N1CCCC(CN2CCCC2)C1 (stereo not drawn) [Example 2, 3-[1-(4-{[3-(pyrrolidin-1-ylmethyl)piperidin-1-yl]carbonyl}phenyl)-1H-1,2,3-triazol-4-yl]-1H-indazole] | < 100 | < 100 | 200 to 2000 |
| O=C(c1ccc(-n2cc(-c3n[nH]c4ccccc34)nn2)cc1)N1CCCC(O)C1 (stereo not drawn) [Example 30] | 100 to 1000 | 100 to 1000 | 200 to 2000 |
| O=C(c1ccc(-n2cc(-c3n[nH]c4ccccc34)nn2)cc1)N1CCCC(CO)C1 (stereo not drawn) [Example 33] | 100 to 1000 | < 100 | < 200 |
| COC1CCN(C(=O)c2ccc(-n3cc(-c4n[nH]c5ccccc45)nn3)cc2)CC1 [Example 109, 3-(1-{4-[(4-methoxypiperidin-1-yl)carbonyl]phenyl}-1H-1,2,3-triazol-4-yl)-1H-indazole] | 100 to 1000 | 100 to 1000 |  |
| O=C(Nc1cnn(CCN2CCOCC2)c1)c1ccc(-n2cc(-c3n[nH]c4ccccc34)nn2)cc1 [Example 111, 4-[4-(1H-indazol-3-yl)-1H-1,2,3-triazol-1-yl]-N-[1-(2-morpholin-4-ylethyl)-1H-pyrazol-4-yl]benzamide] | 100 to 1000 | 100 to 1000 |  |
| O=C(c1ccc(-n2cc(-c3n[nH]c4ccccc34)nn2)cc1)N1CC(O)C1 [Example 114, 1-{4-[4-(1H-indazol-3-yl)-1H-1,2,3-triazol-1-yl]benzoyl}azetidin-3-ol] | 100 to 1000 | 100 to 1000 |  |
| Cc1nccn1CC1CCCN(C(=O)c2ccc(-n3cc(-c4n[nH]c5ccccc45)nn3)cc2)C1 (stereo not drawn) [Example 115, 3-{1-[4-({3-[(2-methyl-1H-imidazol-1-yl)methyl]piperidin-1-yl}carbonyl)phenyl]-1H-1,2,3-triazol-4-yl}-1H-indazole] | 100 to 1000 | 100 to 1000 |  |
| O=C(c1ccc(-n2cc(-c3n[nH]c4ccccc34)nn2)cc1)N1CCCCC1CCO (stereo not drawn) [Example 117, 2-(1-{4-[4-(1H-indazol-3-yl)-1H-1,2,3-triazol-1-yl]benzoyl}piperidin-2-yl)ethanol] | 100 to 1000 | 100 to 1000 |  |
| CN1C2CCC1CC(n1cc(NC(=O)c3ccc(-n4cc(-c5n[nH]c6ccccc56)nn4)cc3)cn1)C2 (stereo not drawn) [Example 125, 4-[4-(1H-indazol-3-yl)-1H-1,2,3-triazol-1-yl]-N-[1-(8-methyl-8-azabicyclo[3.2.1]oct-3-yl)-1H-pyrazol-4-yl]benzamide] | 100 to 1000 | < 100 | 200 to 2000 |
| O=C(c1ccc(-n2cc(-c3n[nH]c4ccccc34)nn2)cc1)N1CCCC(Cn2ccnc2)C1 (stereo not drawn) [Example 126, 3-[1-(4-{[3-(1H-imidazol-1-ylmethyl)piperidin-1-yl]carbonyl}phenyl)-1H-1,2,3-triazol-4-yl]-1H-indazole] | 100 to 1000 | < 100 |  |
| O=C(Nc1cnn(C2CCNCC2)c1)c1ccc(-n2cc(-c3n[nH]c4ccccc34)nn2)cc1 [Example 128, 4-[4-(1H-indazol-3-yl)-1H-1,2,3-triazol-1-yl]-N-(1-piperidin-4-yl-1H-pyrazol-4-yl)benzamide hydrochloride] | 1000 to 5000 | 100 to 1000 |  |
| CN(C)C1CCN(C(=O)c2ccc(-n3cc(-c4n[nH]c5ccc(F)cc45)nn3)cc2)CC1 [Example 158] |  |  | < 200 |
| c1ccc2c(-c3cn(-c4ccc(CN5CCOCC5)cc4)nn3)n[nH]c2c1 [Example 188] |  | 100 to 1000 | 200 to 2000 |
| Cc1ccc2c(-c3cn(-c4cnn(C5CC6CCC(C5)N6C)c4)nn3)n[nH]c2c1 (stereo not drawn) [Example 224] |  | < 100 | 200 to 2000 |
| O=C(NC1CCCNC1)c1ccc2[nH]nc(-c3cn(-c4ccc(CN5CCOCC5)cc4)nn3)c2c1 (stereo not drawn) [Example 238] |  | < 100 | < 200 |
| CN1[C@@H]2CC[C@H]1C[C@@H](c1ccc(-n3cc(-c4n[nH]c5ccccc45)nn3)cc1)C2 [Example 251] |  | 100 to 1000 | 200 to 2000 |
| Cc1ccc2c(-c3cn(-c4ccc(C5CCN(C6CCOCC6)CC5)cc4)nn3)n[nH]c2c1 [Example 298] |  | 100 to 1000 | 200 to 2000 |

Now from value to compound, other results behind:

| IC50 [1] [nM] | IC50 (IRAK1/4 human) [nM] | Compound | IC50 [2] [nM] |
| --- | --- | --- | --- |
| 100 to 1000 | 100 to 1000 | Cc1ccc2[nH]nc(-c3cn(-c4ccc(CN5CCOCC5)cc4)nn3)c2c1 [Example 7, 5-methyl-3-{1-[4-(morpholin-4-ylmethyl)phenyl]-1H-1,2,3-triazol-4-yl}-1H-indazole] | 200 to 2000 |
| 100 to 1000 | < 100 | COC[C@@H]1CCCN1C(=O)c1ccc(-n2cc(-c3n[nH]c4ccccc34)nn2)cc1 [Example 108, 3-[1-(4-{[(2S)-2-(methoxymethyl)pyrrolidin-1-yl]carbonyl}phenyl)-1H-1,2,3-triazol-4-yl]-1H-indazole] |  |
| 1000 to 5000 | 100 to 1000 | Cc1ccc(=O)n(Cc2ccc3[nH]nc(-c4cn(-c5ccc(C(=O)N6CCOCC6)cc5)nn4)c3c2)n1 [Example 110] |  |
| 100 to 1000 | < 100 | CN1CCC(n2cc(NC(=O)c3ccc(-n4cc(-c5n[nH]c6ccccc56)nn4)cc3)cn2)C1 (stereo not drawn) [Example 112, 4-[4-(1H-indazol-3-yl)-1H-1,2,3-triazol-1-yl]-N-[1-(1-methylpyrrolidin-3-yl)-1H-pyrazol-4-yl]benzamide] |  |
| 100 to 1000 | 100 to 1000 | COCCC1CCCN(C(=O)c2ccc(-n3cc(-c4n[nH]c5ccccc45)nn3)cc2)C1 (stereo not drawn) [Example 113] |  |
| 100 to 1000 | 100 to 1000 | COCC1CCCN(C(=O)c2ccc(-n3cc(-c4n[nH]c5ccccc45)nn3)cc2)C1 (stereo not drawn) [Example 118, 3-[1-(4-{[3-(methoxymethyl)piperidin-1-yl]carbonyl}phenyl)-1H-1,2,3-triazol-4-yl]-1H-indazole] |  |
| 100 to 1000 | 100 to 1000 | O=C(c1ccc(-n2cc(-c3n[nH]c4ccccc34)nn2)cc1)N1CCC(N2CCCC2)CC1 [Example 120, 3-(1-{4-[(4-pyrrolidin-1-ylpiperidin-1-yl)carbonyl]phenyl}-1H-1,2,3-triazol-4-yl)-1H-indazole] |  |
| 100 to 1000 | < 100 | O=C(c1ccc(-n2cc(-c3n[nH]c4ccc(C5CCN(CCF)CC5)cc34)nn2)cc1)N1CCOCC1 [Example 121, 5-[1-(2-fluoroethyl)piperidin-4-yl]-3-{1-[4-(morpholin-4-ylcarbonyl)phenyl]-1H-1,2,3-triazol-4-yl}-1H-indazole] |  |
| < 100 | < 100 | Cn1cc(-c2ccc3[nH]nc(-c4cn(-c5ccc(C(=O)N6CCOCC6)cc5)nn4)c3c2)cn1 [Example 123, 5-(1-methyl-1H-pyrazol-4-yl)-3-{1-[4-(morpholin-4-ylcarbonyl)phenyl]-1H-1,2,3-triazol-4-yl}-1H-indazole] |  |
| 100 to 1000 | < 100 | CN1CCC(c2ccc3[nH]nc(-c4cn(-c5ccc(C(=O)N6CCOCC6)cc5)nn4)c3c2)CC1 [Example 124, 5-(1-methylpiperidin-4-yl)-3-{1-[4-(morpholin-4-ylcarbonyl)phenyl]-1H-1,2,3-triazol-4-yl}-1H-indazole] | < 200 |
| 100 to 1000 | < 100 | COC1CCCN(C(=O)c2ccc(-n3cc(-c4n[nH]c5ccccc45)nn3)cc2)C1 (stereo not drawn) [Example 127] |  |
| 1000 to 5000 | 100 to 1000 | O=C(Nc1cnn(C2CCCNCC2)c1)c1ccc(-n2cc(-c3n[nH]c4ccccc34)nn2)cc1 (stereo not drawn) [Example 129, N-(1-azepan-4-yl-1H-pyrazol-4-yl)-4-[4-(1H-indazol-3-yl)-1H-1,2,3-triazol-1-yl]benzamide hydrochloride] |  |
|  | 100 to 1000 | c1ccc2c(-c3cn(-c4ccc(C5CCNCC5)cc4)nn3)n[nH]c2c1 [Example 132, 3-[1-(4-piperidin-4-ylphenyl)-1H-1,2,3-triazol-4-yl]-1H-indazole hydrochloride] | 200 to 2000 |
|  | < 100 | Cc1ccc2c(-c3cn(-c4ccc(C5CCN(CC(O)C(F)(F)F)CC5)cc4)nn3)n[nH]c2c1 (stereo not drawn) [Example 136, 1,1,1-trifluoro-3-(4-{4-[4-(6-methyl-1H-indazol-3-yl)-1H-1,2,3-triazol-1-yl]phenyl}piperidin-1-yl)propan-2-ol] | 200 to 2000 |
|  | 100 to 1000 | c1ccc2c(-c3cn(-c4ccc(CN5C[C@@H]6C[C@H]5CO6)cc4)nn3)n[nH]c2c1 [Example 145, 3-(1-{4[(1S,4S)-2-oxa-5-azabicyclo[2.2.1]hept-5-ylmethyl]phenyl}-1H-1,2,3-triazol-4-yl)-1H-indazole] | 200 to 2000 |
|  | < 100 | O=c1ccc(-c2cccnc2)nn1Cc1ccc2[nH]nc(-c3cn(-c4ccc(CN5CCOCC5)cc4)nn3)c2c1 [Example 197] | < 200 |
|  | < 100 | O=C(c1ccc(-n2cc(-c3n[nH]c4ccc(C5CCCNC5)cc34)nn2)cc1)N1CCOCC1 (stereo not drawn) [Example 204] | 200 to 2000 |
|  | 100 to 1000 | O=C(c1ccc(-n2cc(-c3n[nH]c4cc(-c5cccnc5)ccc34)nn2)cc1)N1CCOCC1 [Example 210] | 200 to 2000 |
